Patent US11058772B2, “(Bacterio)chlorophyll photosensitizers for treatment of eye diseases and disorders” (Yeda Research and Development Co. Ltd., priority 2011, dated 2021)

Key:
[1] = test system: rabbit cornea (keratocytes, endothelium), retina; assay: Histology and endothelial staining after in vivo treatment; settings: two days after treatment
Protocol: Forty eight hours or 1 week after treatment with Bchl-S, Bchl-D, RF or RF-D, rabbits were euthanized, and the eyes were immediately enucleated and fixated in Davidson's fixative (48 hour post treatment) or in 4% formaldehyde (1 week post treatment). […] sections were prepared from either the whole eye or corneas and stained with hematoxylin-eosin (H&E). The pathology of the corneal and retinal sections was examined. The sections were photographed with a digital video camera (Nikon DS-Ril, Japan), mounted on a light microscope (E-800 Leica, Germany). Keratocyte and endothelial cell densities were counted in 2 areas of 2 central histological sections and calculated, using Image-Pro software (MediaCybernetics, MD, USA). Rabbits underwent analysis of corneal endothelial damage 1 day post treatment, using alizarine red S and trypan blue staining as described in Spence and […], 1976. The treatment included either a 20-minute pretreatment with Bchl-S or Bchl-D solutions, followed by 30-minute irradiation at 755 nm (2 rabbits), or only a 30-minute irradiation at 760 nm (2 rabbits). Contralateral non-treated eyes served as controls. One rabbit underwent treatment with WST11 in saline (WST11-S; 20-minute incubation, 30-minute irradiation at 755 nm). Six rabbits underwent treatment with WS[…] (n=4, 20-minute incubation, 30-minute irradiation at 755 nm), or with RF-D (n=2, 30-minute incubation, 30-minute irradiation at 370 nm) as described above (In-vivo studies section). Contralateral eyes were used as control.

[2] = test system: de-epithelialized rabbit cornea; assay: Depth of penetration into the rabbit cornea, ex vivo (fluorescence microscopy of sagittal slices); assay type: in vitro ADME
Protocol: Eyes of rabbits were enucleated and deepithelialised mechanically post mortem. The eyes were exposed to Bchl-S solution using an eye cap for 5, 10, and 30 minutes and to Bchl-D solution for 10 and 30 min, in darkness. Controls: untreated eyes, and one eye treated with dextran-500 only for 30 min in darkness. Following this pretreatment, the corneas were briefly rinsed with saline and the central 8-mm buttons were trephined, removed, wrapped in aluminum foil and frozen on dry ice until further use. Central serial corneal sagittal slices (12 μm) were cut with a cryomicrotome, mounted on a microscope glass slide and stored frozen in −70° C. until use. For measurement of fluorescence, the individual slices were placed on the microscope base and a photographic record was immediately taken. Fluorescence intensity of Bchl-S or Bchl-D treated corneas from 3 serial cryo sections was recorded at 760 nm, upon excitation at 740 nm, using a fluorescence microscope (BX61 Olympus, Japan) equipped with CCD camera (Cascade 512B, Roper Sci., USA) and a long pass filter of above 760 nm. The digital data was analyzed, using ImageJ software (NIH, USA).
The penetration depth of the photosensitizer determines the extent of cornea's tissue exposure to the photodynamic effect. In particular, the deeper the penetration, the higher is the probability for endothelial impairment. To resolve the penetration depth of test compounds following different times of incubation, the digitized fluorescence of dissected corneal discs was monitored using fluorescence microscopy as described in Materials and Methods.
The penetration depth of WST11 into the de-epithelialized cornea, following various incubation times, was performed in the darkness in the absence or presence of dextran, using saline or dextran solutions of WST11 (WST11-S or WST11-D solutions, respectively) in 20 eyes of euthanized rabbits. Sagittal frozen sections mounted on glass slides were subjected to fluorescence microscopy. The distribution of WST11 across the cornea was recorded photographically by fluorescence microscopy (excitation/emission 740/760 nm). The controls were 4 untreated eyes and 1 eye treated only with dextran-T 500 for 30 minutes.

rabbit cornea = assay: Clinical course after in vivo cornea treatment (edema, epithelial healing, haze); settings: for epithelial haze / time to healing of corneal epithelial defect: dipotassium salt
Protocol: Twelve to twenty five weeks old rabbits (2.5-3 Kg weight) were used. They were anesthetized by intramuscular (i.m.) injection of 35 mg/kg ketamine (Rhone Merieux, Lyon, France) and 5 mg/kg xylazine (Vitamed, Binyamina, Israel). Usually, 16 rabbits were assigned for bacteriochlorophyll treatment. After de-epithelialization, one eye of each rabbit was treated topically with a test compound in saline for 10, 20 and 30 minutes using an eye cap (12 mm in diameter), followed by NIR illumination for 10, 20 or 30 minutes (755 nm, 10 mW/cm^2). The other eye served as untreated control. To prevent exposure of the limbal stem cells, the illuminated area was restricted by an aluminum foil mask with an 8 mm diameter central opening. To determine the role of dextran, 12 rabbits were divided into 4 treatment groups of 3 rabbits each: group 1, the Bchl-S group, was treated with a saline solution of a bacteriochlorophyll derivative; group 2, the Bchl-D group, treated with a bacteriochlorophyll-dextran solution. Both groups were incubated with the test compound for 20-min, followed by NIR illumination (755 nm, 10 mW/cm^2) for 30 minutes. Group 3, the RF group, was treated with riboflavin without dextran, and group 4, the RF-D group was treated with RF-dextran solution (RF-D). Both groups were incubated with RF or RF-D solutions for 30-minute, followed by UVA illumination (370 nm, 3 mW/cm^2) for 30 minutes. An ophthalmic ointment containing dexamethasone 0.1%, neomycin and polymixin B (Maxitrol®, Alcon, Belgium) was applied on the treated eyes once daily for two weeks. Four weeks after the treatment the rabbits were sacrificed, and the corneoscleral rings were removed and placed on paraffin hemisphere buttons of matching shape to assure accurate sectioning without stretching the tissue. Corneal strips, 4±0.2 mm in width, were cut from the epithelial side, as described above in the ex-vivo section. The corneal strips were transferred to the biomechanical tester without delay.
To determine the role of dextran, the photochemical treatment with a formulation of WST11 2.5 mg/ml containing 20% dextran T-500 (WST11-D) was examined. Six rabbits were examined: 3 rabbits were pretreated for 20 min with WST11-S solution and 3 with WST11-D solution, followed by NIR illumination for 30 minutes. Additional 4 rabbits were treated with RF (n=2) or RF-D (n=2) for 30 minutes, followed by 30-min UVA irradiation (370 nm, 3 mW/cm^2).

[3] = in vivo after photosensitizer + illumination
[4] = in vivo after photosensitizer + illumination, listed as WST11-S

corneal edema (histology) [1]: marked edema
cornea swelling (thickness) ([1]; histology): 890 μm
endothelial counts, treatment vs control ([1]; P=0.47): no statistical difference
stromal thickness after exposure ([2]; 30 min exposure to saline solution, from 360-380 μm): 600-730 μm
penetration depth into corneal stroma ([2]; in saline, no dextran, 10 min exposure, dipotassium salt): half of the corneal stroma
penetration depth into corneal stroma ([2]; in saline, no dextran, 10 min exposure, listed as WST11-S, dipotassium salt): entire outer half of the stroma
penetration depth into corneal stroma ([2]; in saline, no dextran, 30 min exposure, dipotassium salt): entire stroma depth
penetration depth into corneal stroma ([2]; in saline, no dextran, 30 min exposure, listed as WST11-S, dipotassium salt): all the way to Descemet's membrane
penetration depth into corneal stroma ([2]; with dextran-500, 10 min incubation): outer ⅓ of the corneal stroma
penetration depth into corneal stroma ([2]; with dextran-500, 30 min incubation): 50%
corneal edema after treatment, duration (rabbit cornea; in vivo, saline solution/NIR): one week
Structure (SMILES): CCC1C2=Cc3c(C)c(C(=O)NCCS(=O)(=O)[O-])c4[n]3[Pd][n]3c(c(C)c(C(C)=O)c3=CC(=N2)C1C)=CC1=NC(=C4CC(=O)OC)C(CCC(=O)[O-])C1C.[K+].[K+] (stereo not drawn) [WST11, Palladium 3^1-oxo-15-methoxycarbonylmethyl-rhodobacteriochlorin 13^1-(2-sulfoethyl)amide dipotassium salt]
keratocytes in stroma (histology) [1]: reduced number of keratocytes throughout the stroma
endothelial cell layer / damage to the endothelium ([1]; H&E and vital staining, listed as WST11-S, dipotassium salt): appeared intact
time to clearing of corneal edema (rabbit cornea; [3]): 5 days
epithelial haze (rabbit cornea; [3]): without haze development
time to healing of corneal epithelial defect (rabbit cornea; [3]): 7 to 9 days
epithelial haze (rabbit cornea; [4]): some corneas demonstrating epithelial haze
time to healing of corneal epithelial defect (rabbit cornea; [4]): 10 to 14 days
